From patent US20130203765A1, “DEUTERATED PYRROLOPYRIMIDINE COMPOUNDS AS INHIBITORS OF CDK4/6” (Novartis AG, priority 2010, published 2013)

What was measured:
CDK1/cyclin B = CDK1/cyclin B (Homo sapiens, UniProt P06493); assay: CDK1/cyclin B enzymatic activity assay (IMAP-FP); type: biochemical; settings: 100 nM Tamra Histone-H1 peptide, 20 μM ATP, 120 min
Description: CDK1/Cyclin B Enzymatic Activity Assay A 384-well microtiter IMAP-FP™ (Molecular Devices Trade Mark Technology) endpoint assay was used for CDK1/cyclin B kinase activity measurements. The same assay was used for IC50 determination of small molecule inhibitors. […] No. R8139), 10 μL substrate mixture of Tamra Histone-H1 peptide (Molecular Devices, Cat. No. R7384) and ATP (Amersham Pharmacia, Cat. No. 27-2056-01) in the 1× Reaction Buffer with 1 mM DTT freshly added. […] All reactions were run at room temperature in black 384-well flat-bottom Costar plates (Corning, Cat. […] No. R8139).

[1] = Rat pharmacokinetics, intravenous injection 1 mg/kg; type: in vivo, Sprague Dawley rats; settings: for AUC0-7 h / AUC0-7 h of mono-methyl metabolite: n=2, plasma, mean; for AUC0-7 h: dosed parent compound; for AUC0-7 h of mono-methyl metabolite: IV 1 mg/kg of the parent (Example 1 or Comparator A), metabolite measured
Description: (§1) The plasma was separated, frozen and later analyzed. […] In the case of Comparator A the plasma was analyzed for Comparator A and its mono-methyl metabolite, Comparator B. The quantitation of each metabolite and its parent compound was done by LC-MS/MS with standard curves using authentic standards of each compound. The analysis allowed the characterization of the time-concentration profile and the calculation of pharmacokinetic (PK) parameters via non-compartmental methods.

[2] = Rat pharmacokinetics, oral gavage 5 mg/kg; type: in vivo, Sprague Dawley rats; settings: for Cmax / Tmax / AUC0-7 h: PO 5 mg/kg; for Cmax / Tmax: n=3, dosed parent compound; for Cmax / Tmax / AUC0-7 h / AUC0-7 h of mono-methyl metabolite / Tmax of mono-methyl metabolite: mean; for AUC0-7 h / AUC0-7 h of mono-methyl metabolite: n=3, plasma; for AUC0-7 h: dosed parent compound; for AUC0-7 h of mono-methyl metabolite: PO 5 mg/kg of the parent (Example 1 or Comparator A), metabolite measured; for Tmax of mono-methyl metabolite: PO 5 mg/kg of the parent, n=3, metabolite measured
Description: as §1

CDK4/cyclin D1 = biological target: T1, CDK4/cyclin D1 (Homo sapiens, UniProt P11802); assay: CDK4/cyclin D1 enzymatic activity assay (Lance TR-FRET); type: biochemical; settings: 0.3 nM CDK4/cyclin D1, 175 nM pRb152, 3 μM ATP, 60 min
T1 construct: His6 (N); made in house; host or cells: Sf21 insect cells (baculovirus)
Description: The same assay was used for IC50 determination of small molecule inhibitors. In general, the kinase reactions were carried out in 30 μL volumes in the reaction solution containing the following: 2 uL compound (in 20% DMSO), 18 uL CDK4/cyclin D1 in Assay Buffer (50 mM HEPES, pH 7.5, 5 mM MgCl2, 2 mM MnCl2, 1 mM DTT, 0.05% BSA, 0.02% Tween-20), 10 uL of the mixture of pRb152 and ATP. […] All reactions were run at room temperature in 384-well white flat-bottom OptiPlates (Perkin Elmer, Cat. No. 6007290) for 60 min then were quenched by the addition of 10 μL of 120 mM EDTA. The signals were captured by the addition of 40 μL of the Detection Solution containing the following: Detection Buffer (50 mM HEPES, pH 7.5, 30 mM EDTA, 0.1% Triton x-100, 0.05% BSA), 70 ng/mL anti-phospho-pRb(S780) (Cell Signaling Technology, Cat. No. 9307S), 1 nM Lance Eu-W1024-Rabbit anti-IgG (Perkin Elmer, Cat. No. AD0082), and 20 nM SureLight™ Allophycocyanin-Streptavidin (Perkin Elmer, Cat. No. CR130-100). The resulted solutions were incubated at room temperature for 2 hours before read on the Evision Multilabel Reader (Perkin Elmer, Envision 2102-0010).

Chain of CDK1/cyclin B (P06493 whole entry, species assumed): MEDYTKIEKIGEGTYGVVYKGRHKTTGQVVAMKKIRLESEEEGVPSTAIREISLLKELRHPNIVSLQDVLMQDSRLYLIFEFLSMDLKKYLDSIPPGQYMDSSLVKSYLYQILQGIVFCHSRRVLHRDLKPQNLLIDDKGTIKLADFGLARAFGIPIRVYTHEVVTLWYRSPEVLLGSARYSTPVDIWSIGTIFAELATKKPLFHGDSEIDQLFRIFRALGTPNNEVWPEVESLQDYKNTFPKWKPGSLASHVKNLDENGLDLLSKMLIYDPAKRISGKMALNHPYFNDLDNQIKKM
Chain of CDK1/cyclin B (P14635 whole entry partner, species assumed): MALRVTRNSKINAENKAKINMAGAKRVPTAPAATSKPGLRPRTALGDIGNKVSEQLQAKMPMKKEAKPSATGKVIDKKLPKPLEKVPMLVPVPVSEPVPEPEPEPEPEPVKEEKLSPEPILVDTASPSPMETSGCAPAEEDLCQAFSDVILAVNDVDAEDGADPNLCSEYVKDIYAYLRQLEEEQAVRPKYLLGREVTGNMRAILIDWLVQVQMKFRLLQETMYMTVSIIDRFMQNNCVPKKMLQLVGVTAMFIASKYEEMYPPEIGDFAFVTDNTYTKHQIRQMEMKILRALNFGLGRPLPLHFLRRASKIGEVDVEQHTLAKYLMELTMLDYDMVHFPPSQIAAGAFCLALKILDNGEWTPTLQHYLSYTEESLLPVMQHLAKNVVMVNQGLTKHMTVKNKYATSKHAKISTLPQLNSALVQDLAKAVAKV
T1 sequence (P11802 whole entry): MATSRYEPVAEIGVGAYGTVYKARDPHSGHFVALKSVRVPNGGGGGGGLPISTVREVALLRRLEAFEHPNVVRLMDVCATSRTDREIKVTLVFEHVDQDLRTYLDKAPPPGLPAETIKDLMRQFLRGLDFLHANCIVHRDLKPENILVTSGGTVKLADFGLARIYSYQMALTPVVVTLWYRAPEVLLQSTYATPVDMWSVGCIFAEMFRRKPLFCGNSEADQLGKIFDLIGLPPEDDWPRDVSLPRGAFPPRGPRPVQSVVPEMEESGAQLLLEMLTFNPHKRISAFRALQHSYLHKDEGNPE
T1 sequence (P24385 whole entry partner): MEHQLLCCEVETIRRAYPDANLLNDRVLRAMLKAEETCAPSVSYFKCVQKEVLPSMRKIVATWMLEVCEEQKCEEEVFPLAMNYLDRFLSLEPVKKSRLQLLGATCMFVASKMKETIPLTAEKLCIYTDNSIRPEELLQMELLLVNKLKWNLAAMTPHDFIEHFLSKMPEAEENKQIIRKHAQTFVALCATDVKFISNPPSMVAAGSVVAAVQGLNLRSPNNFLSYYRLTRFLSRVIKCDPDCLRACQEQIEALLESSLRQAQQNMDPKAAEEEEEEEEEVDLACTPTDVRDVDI

Compound | T½ ([1]; IV 1 mg/kg, n=2, mean) [h] | AUC0-7 h ([1]; IV 1 mg/kg) [µM·h] | Tmax [2] [h] | AUC0-7 h [2] [µM·h] | AUC0-7 h of mono-methyl metabolite [1] [µM·h] | AUC0-7 h of mono-methyl metabolite [2] [µM·h] | Tmax of mono-methyl metabolite [2] [h] | also measured
7-cyclopentyl-2-(5-piperzin-1-yl-pyridin-2-ylamino)-7H-pyrrolo[2,3-d]pyrimidine-6-carboxylic acid dimethylamide-d5 [Example 1] | 3.2 | 0.883 | 2 | 2.432 | – | – | – | IC50 (CDK1/cyclin B; […] CDK1/cyclin B): > 15 µM; VDss higher than VDss of Comparator A ([1]; 1 mg/kg iv): approximately 1.6 fold; CL ([1]; IV 1 mg/kg, n=2, mean): 37 mL/min/kg; Vdss ([1]; IV 1 mg/kg, n=2, mean): 8.6 L/kg; Absolute oral bioavailability higher than Comparator A ([2]; 5 mg/kg po): 1.8 fold; F (absolute oral bioavailability) ([2]; PO 5 mg/kg vs IV 1 mg/kg): 55%; Cmax [2]: 549 nM
CN(C)C(=O)c1cc2cnc(Nc3ccc(N4CCNCC4)cn3)nc2n1C1CCCC1 [Comparator A, 7-cyclopentyl-2-(5-piperazin-1-yl-pyridin-2-ylamino)-7H-pyrrolo[2,3-d]pyrimidine-6-carboxylic acid dimethylamide, reference compound] | 2.3 | 1.028 | 1.5 | 1.618 | – | – | – | clearance ([1]; Sprague Dawley, plasma, IV 1 mg/kg, n=2, mean): 34 mL/min/kg; Vd ([1]; Sprague Dawley, plasma, IV 1 mg/kg, n=2, mean, read-out: Vdss): 5.4 L/kg; bioavailability ([2]; Sprague Dawley, plasma, PO 5 mg/kg vs IV 1 mg/kg, read-out: F (absolute oral bioavailability)): 31%; Cmax ([2]; Sprague Dawley, plasma): 348 nM
CNC(=O)c1cc2cnc(Nc3ccc(N4CCNCC4)cn3)nc2n1C1CCCC1 [Comparator B, 7-cyclopentyl-2-(5-piperazin-1-yl-pyridin-2-ylamino)-7H-pyrrolo[2,3-d]pyrimidine-6-carboxylic acid methylamide, reference compound] | – | – | – | – | 0.156 | 0.372 | 4.3 | –
[2H]C([2H])([2H])NC(=O)c1cc2cnc(Nc3ccc(N4CCNCC4)cn3)nc2n1C1CCCC1 [Example 2, 7-cyclopentyl-2-(5-piperzin-1-yl-pyridin-2-ylamino)-7H-pyrrolo[2,3-d]pyrimidine-6-carboxylic acid methylamide-d3] | – | – | – | – | 0.066 | 0.128 | 3.3 | IC50 (CDK4/cyclin D1): 0.132 µM; IC50 (CDK1/cyclin B; 0.25 nM CDK1/cyclin B): > 15 µM
